System: male rat
Experiment: Onset of diarrhea due to intragastric administration of an elemental diet in fasted rats (stool state ranked 1-4)
Type: in vivo
Text: According to a conventional method, under pentobarbital anesthesia, a catheter for elemental diet administration was inserted by operation in the stomach of a male rat (body weight about 270 g), and a recovery period of one week was given. For breeding, a regular rat feed and tap water were given, and free intake was allowed. After confirmation of recovery, the rat was fasted three nights to induce lower gastrointestinal function. The fasting schedule on the day before operation, the operation day and the day after operation in the case of surgery patients was imitated.
On the day of the test, the rats were divided into 3 groups, each rat was moved to a separate observation cage, and the onset of diarrhea due to the administration of an elemental diet shown below was observed. First, one pack (80 g) of elemental diet having the composition shown in Table 1 was dissolved in water (300 cc) and prepared to show 1 kcal/cc, which was used as elemental diet 1. Three groups of an elemental diet 1 administration group as a control, an elemental diet 2 administration group, to which 1.0 w/v % (0.88 w/v % as free glutamic acid) of sodium glutamate (MSG) was added, and an elemental diet 3 administration group, to which sodium chloride (0.35 w/v %) was added, were compared. Each test elemental diet was administered using an electric pump via the catheter inserted into the stomach. The administration was started from 10:30 AM and intermittently administered 4 times per hr at 7 mL/hr. Each test elemental diet administered to one rat was 28 mL in total. The state of stool was observed from the start of the administration until 10:30 AM the next morning and, based on the severity of the symptom, ranked in 4 levels of 1. normal stool or no stool, 2, soft stool (shape was maintained), 3, muddy stool (no shape) and 4, watery stool.
A method according to Example 1 was employed. […] Each test elemental diet was administered using an electric pump via the catheter inserted into the stomach.
A method according to Example 1 was employed. Three groups of an elemental diet 1 administration group having the composition shown in a separate table as a control, an elemental diet 6 administration group, to which 0.04 w/v % (0.036 w/v % as free guanylic acid) of sodium guanylate (GMP) was added, and an elemental diet 7 administration group, to which 0.20 w/v % (0.18 w/v % as free guanylic acid) was added, were compared. Each test elemental diet was administered using an electric pump via the catheter inserted into the stomach.

[1] = Example 3, elemental diet 6 with 0.04 w/v % sodium guanylate, out of 13 cases
[2] = Example 3, elemental diet 7 with 0.20 w/v % sodium guanylate, out of 13 cases
[3] = Example 1, elemental diet 3 with 0.35 w/v % sodium chloride, out of 11 cases

Question: How did the “improvement of diarrhea (stool rank) vs non-addition group” value (Example 1, 1.0 w/v % sodium glutamate, Kruskal-Wallis, p<0.05) turn out when `N[C@@H](CCC(=O)[O-])C(=O)[O-].[Na+].[Na+]` [sodium glutamate] was run?
Answer: significant improvement effect

Question: What about the “rank 2 soft stool observed” value (po) of the same molecule?
Answer: 1 case

Question: And the “rank 3 muddy stool observed” value (po)?
Answer: 2 cases

Question: What does the source list for `Nc1nc2c(ncn2[C@@H]2O[C@H](COP(=O)([O-])[O-])[C@@H](O)[C@H]2O)c(=O)[nH]1.[Na+].[Na+]` [sodium guanylate]?
Answer: rank 1 normal stool or no stool observed (Example 3, elemental diet 6 with 0.04 w/v % sodium guanylate (0.036 w/v % as free guanylic acid), out of 13 cases): 3 cases; rank 2 soft stool observed [1]: 1 case; rank 4 watery stool observed [1]: 9 cases; rank 1 normal stool or no stool observed (Example 3, elemental diet 7 with 0.20 w/v % sodium guanylate (0.18 w/v % as free guanylic acid), out of 13 cases): 3 cases; rank 2 soft stool observed [2]: 1 case; rank 4 watery stool observed [2]: 9 cases; diarrhea symptom-improving effect by the addition (Example 3, sodium guanylate 0.04 and 0.20 w/v % addition groups vs non-addition group): diarrhea symptom-improving effect was considered to be observed

Question: Which results are given for `[Cl-].[Na+]` [sodium chloride, reference compound]?
Answer: rank 1 observed [3]: 1 case; rank 3 observed [3]: 6 cases

From US7993668B2, “Nutrient composition and composition for prevention/mitigation of digestive tract depression” (Ajinomoto Co., Inc., priority 2004, dated 2011)
